Laboratory results from patent publication US20060189574A1, “Method of treating high plasma cholesterol levels” (priority 2000, published 2006).

Assays:
[1] = test system: animal models; conditions: cited from earlier work
[2] = test system: fat absorption; conditions: humans; cited from earlier work
[3] = test system: plasma cholesterol; assay: Effect of Orlistat/XENICAL and cholestyramine/[…] on plasma cholesterol in volunteers; format: in vivo, human; conditions: for plasma cholesterol, mean: mean of volunteers
Description: The effect of a combination of Orlistat/XENICAL® and a bile acid sequestrant cholestyramine/[…]® on plasma cholesterol was examined.
Three hyper-cholesterolemic volunteers, one female, 2 males, […] cholesterol level: They continued on a combination of […], […]

Structure (SMILES): CCCCCCCCCCC[C@@H](C[C@@H]1OC(=O)[C@H]1CCCCCC)OC(=O)[C@H](CC(C)C)NC=O [Xenical, Orlistat]
- body weight [1]: reduce body weight
- fat absorption [1]: inhibit fat absorption
- fat absorption [2]: potent inhibition of fat absorption
- plasma cholesterol course ([3]; all three individuals, end of 6 weeks treatment with Xenical b.i.d.): reasonably stable
- plasma cholesterol, mean ([3]; week 4, Xenical b.i.d.): 252 mg/100 ml
- plasma cholesterol, mean ([3]; week 5, Xenical b.i.d.): 225 mg/100 ml
- plasma cholesterol, mean ([3]; week 6, Xenical b.i.d.): 247 mg/100 ml
- plasma cholesterol, mean ([3]; week 11, Xenical b.i.d. after cessation of Quantalan): 253 mg/100 ml
- plasma cholesterol, mean ([3]; week 13, Xenical b.i.d. after cessation of Quantalan): 263 mg/100 ml
- plasma cholesterol ([3]; volunteer 1, week 4, Xenical b.i.d.): 252 mg/100 ml
- plasma cholesterol ([3]; volunteer 1, week 5, Xenical b.i.d.): 239 mg/100 ml
- plasma cholesterol ([3]; volunteer 1, week 6, Xenical b.i.d.): 233 mg/100 ml
- plasma cholesterol ([3]; volunteer 1, week 11, Xenical b.i.d. after cessation of Quantalan): 247 mg/100 ml
- plasma cholesterol ([3]; volunteer 2, week 4, Xenical b.i.d.): 236 mg/100 ml
- plasma cholesterol ([3]; volunteer 2, week 5, Xenical b.i.d.): 212 mg/100 ml
- plasma cholesterol ([3]; volunteer 2, week 6, Xenical b.i.d.): 232 mg/100 ml
- plasma cholesterol ([3]; volunteer 2, week 11, Xenical b.i.d. after cessation of Quantalan): 230 mg/100 ml
- plasma cholesterol ([3]; volunteer 2, week 13, Xenical b.i.d. after cessation of Quantalan): 226 mg/100 ml
- plasma cholesterol ([3]; volunteer 3, week 4, Xenical b.i.d.): 269 mg/100 ml
- plasma cholesterol ([3]; volunteer 3, week 6, Xenical b.i.d.): 277 mg/100 ml
- plasma cholesterol ([3]; volunteer 3, week 11, Xenical b.i.d. after cessation of Quantalan): 282 mg/100 ml
- plasma cholesterol ([3]; volunteer 3, week 13, Xenical b.i.d. after cessation of Quantalan): 300 mg/100 ml
